From PubChem BioAssay (NCI)
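Growth conditions: 96-well plates. Treatment: test compound, 48 hours, 5 concentrations. Analysis: linear interpolation between bracketing concentrations; unreached endpoints set to highest concentration. GI50 = concentration required for 50% inhibition of growth. At the TGI there is no net growth.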

Legend:
Assay in all cases: NCI-60 cell line screen, 48 h
CAKI-1 renal = test system: CAKI-1 renal
IGROV1 ovarian = test system: IGROV1 ovarian
RPMI-8226 leukemia = test system: RPMI-8226 leukemia
OVCAR-3 ovarian = test system: OVCAR-3 ovarian
NCI-H522 lung = test system: NCI-H522 lung
UACC-62 melanoma = test system: UACC-62 melanoma
SF-268 CNS = test system: SF-268 CNS
HT29 colon = test system: HT29 colon
HL-60(TB) leukemia = test system: HL-60(TB) leukemia
MDA-MB-231 breast = test system: MDA-MB-231 breast

## COC(=O)c1c[nH]c(=O)[nH]c1=O
CAKI-1 renal
  TGI: > 100 µM
IGROV1 ovarian
  TGI: > 100 µM
RPMI-8226 leukemia
  TGI: > 100 µM
OVCAR-3 ovarian
  TGI: > 100 µM
NCI-H522 lung
  TGI: > 100 µM
UACC-62 melanoma
  TGI: > 100 µM
SF-268 CNS
  TGI: > 100 µM

## Cc1cc(NS(=O)(=O)c2ccc(Nc3c4ccccc4nc4c(C(=O)Nc5ccc(S(=O)(=O)N=C(N)N)cc5)cccc34)cc2)no1
CAKI-1 renal
  TGI: > 100 µM
IGROV1 ovarian
  TGI: > 100 µM
RPMI-8226 leukemia
  TGI: > 100 µM
OVCAR-3 ovarian
  TGI: > 100 µM
HT29 colon
  TGI: > 100 µM
NCI-H522 lung
  TGI: > 100 µM
UACC-62 melanoma
  TGI: > 100 µM
SF-268 CNS
  TGI: > 100 µM

## Cn1cnc([N+](=O)[O-])c1Sc1ccccn1
CAKI-1 renal
  TGI: > 100 µM
IGROV1 ovarian
  TGI: > 100 µM
RPMI-8226 leukemia
  TGI: > 100 µM
OVCAR-3 ovarian
  TGI: > 100 µM
HT29 colon
  TGI: > 100 µM
NCI-H522 lung
  TGI: > 100 µM
UACC-62 melanoma
  TGI: > 100 µM
SF-268 CNS
  TGI: > 100 µM

## C[Si](C)(C)/C=C/CCC(C=O)(CCCl)c1ccccc1 (stereo not drawn)
IGROV1 ovarian
  TGI: > 100 µM
HL-60(TB) leukemia
  TGI: > 100 µM
OVCAR-3 ovarian
  TGI: 38.1 µM
HT29 colon
  TGI: 36 µM
NCI-H522 lung
  TGI: 35.6 µM
UACC-62 melanoma
  TGI: 55.5 µM
SF-268 CNS
  TGI: > 100 µM

## O=C1C2c3[nH]c4ccccc4c3[C@@H]3CCCCCCCCCCC3C2C(=O)N1c1ccccc1 (stereo partly drawn)
IGROV1 ovarian
  TGI: 43.6 µM
HL-60(TB) leukemia
  TGI: 30.2 µM
RPMI-8226 leukemia
  TGI: > 100 µM
OVCAR-3 ovarian
  TGI: 33 µM
HT29 colon
  TGI: > 100 µM
UACC-62 melanoma
  TGI: 59.2 µM
SF-268 CNS
  TGI: 48.1 µM

## COC(=O)C[CH](C(=O)OC)[Ge]([CH3])([CH3])[S]c1ccccc1 (stereo not drawn)
CAKI-1 renal
  GI50: 20.8 µM
  TGI: 47.8 µM
IGROV1 ovarian
  GI50: 0.463 µM
  TGI: 2.2 µM
HL-60(TB) leukemia
  GI50: 3 µM
  TGI: 17.5 µM
RPMI-8226 leukemia
  GI50: 17.1 µM
  TGI: 56.7 µM
OVCAR-3 ovarian
  GI50: 15.1 µM
  TGI: 38.8 µM
HT29 colon
  GI50: 18.6 µM
  TGI: 38.5 µM
NCI-H522 lung
  GI50: 2.94 µM
  TGI: 10.3 µM
UACC-62 melanoma
  GI50: 15.8 µM
  TGI: 36.2 µM
SF-268 CNS
  GI50: 18.7 µM
  TGI: 64.1 µM

## Cc1c[nH]c2c1C13CC1CN(C(=O)c1cc4cc(NC(=O)c5cc6ccccc6o5)ccc4[nH]1)C3=CC2=O (stereo not drawn)
CAKI-1 renal
  GI50: > 1.17 ng/mL
  TGI: < 0.001 µM
IGROV1 ovarian
  GI50: > 1.17 ng/mL
  TGI: 13.5 ng/mL
HL-60(TB) leukemia
  GI50: > 1.17 ng/mL
RPMI-8226 leukemia
  GI50: > 1.17 ng/mL
OVCAR-3 ovarian
  GI50: > 1.17 ng/mL
HT29 colon
  GI50: > 1.17 ng/mL
  TGI: 0.143 µM
NCI-H522 lung
  GI50: > 1.17 ng/mL
  TGI: < 0.001 µM
UACC-62 melanoma
  GI50: > 1.17 ng/mL
  TGI: < 0.001 µM
SF-268 CNS
  GI50: > 1.17 ng/mL
  TGI: < 0.001 µM

## CC1=NNC(=NCCN(C)C)C/C1=C/c1ccccc1Cl
CAKI-1 renal
  TGI: > 100 µM
IGROV1 ovarian
  TGI: > 100 µM
OVCAR-3 ovarian
  TGI: > 100 µM
HT29 colon
  TGI: > 100 µM
UACC-62 melanoma
  TGI: > 100 µM
SF-268 CNS
  TGI: > 100 µM

## N/C(=N\NS(=O)(=O)c1ccccc1)Oc1ccc(Cl)cc1
CAKI-1 renal
  TGI: > 100 µM
IGROV1 ovarian
  TGI: > 100 µM
HL-60(TB) leukemia
  TGI: 60.6 µM
RPMI-8226 leukemia
  TGI: > 100 µM
OVCAR-3 ovarian
  TGI: > 100 µM
HT29 colon
  TGI: > 100 µM
NCI-H522 lung
  TGI: > 100 µM
UACC-62 melanoma
  TGI: > 100 µM
SF-268 CNS
  TGI: > 100 µM

## COc1cc([C@@H]2c3cc4c(cc3[C@@H](NC(=O)c3ccc(N)cc3)C3COC(=O)[C@@H]32)OCO4)cc(OC)c1O (stereo partly drawn)
CAKI-1 renal
  TGI: 89.4 µM
IGROV1 ovarian
  TGI: 20.2 µM
HL-60(TB) leukemia
  TGI: 4.35 µM
RPMI-8226 leukemia
  TGI: 20.2 µM
OVCAR-3 ovarian
  TGI: 30.4 µM
HT29 colon
  TGI: 19.4 µM
NCI-H522 lung
  TGI: 9.23 µM
UACC-62 melanoma
  TGI: 10.9 µM
SF-268 CNS
  TGI: > 100 µM

## O=NC1c2cccc3cccc(c23)C1N=O (stereo not drawn)
CAKI-1 renal
  TGI: 10.8 µM
IGROV1 ovarian
  TGI: 3.19 µM
HL-60(TB) leukemia
  TGI: 6.61 µM
RPMI-8226 leukemia
  TGI: 39.9 µM
OVCAR-3 ovarian
  TGI: 9.6 µM
HT29 colon
  TGI: 23.7 µM
NCI-H522 lung
  TGI: 9.14 µM
SF-268 CNS
  TGI: 26.3 µM

## COc1ccc(SC2c3cc(OC)c(OC)cc3Oc3nc(N)c(C#N)c(N)c32)cc1 (stereo not drawn)
IGROV1 ovarian
  GI50: 0.762 µM
  TGI: 2.37 µM
RPMI-8226 leukemia
  GI50: 0.354 µM
  TGI: 1.81 µM
OVCAR-3 ovarian
  GI50: 1.06 µM
  TGI: 2.31 µM
HT29 colon
  GI50: 2.16 µM
  TGI: 5.04 µM
NCI-H522 lung
  GI50: 1.37 µM
  TGI: 2.77 µM
MDA-MB-231 breast
  GI50: 1.43 µM
  TGI: 2.81 µM
UACC-62 melanoma
  GI50: 0.449 µM
  TGI: 1.74 µM
SF-268 CNS
  GI50: 1.55 µM
  TGI: 3.07 µM

## Cc1nc(C)c(C(=O)Nc2cccc3c2C(=O)NC3=O)cc1C(=O)Nc1cccc2c1C(=O)NC2=O
CAKI-1 renal
  TGI: > 100 µM
IGROV1 ovarian
  TGI: > 100 µM
HL-60(TB) leukemia
  TGI: > 100 µM
RPMI-8226 leukemia
  TGI: > 100 µM
OVCAR-3 ovarian
  TGI: > 100 µM
HT29 colon
  TGI: > 100 µM
NCI-H522 lung
  TGI: > 100 µM
UACC-62 melanoma
  TGI: > 100 µM
SF-268 CNS
  TGI: > 100 µM

## c1ccc2c(CNCCCCCCNCc3cccc4ccccc34)cccc2c1
CAKI-1 renal
  TGI: 20.7 µM
IGROV1 ovarian
  TGI: 30.7 µM
HL-60(TB) leukemia
  TGI: 3.45 µM
RPMI-8226 leukemia
  TGI: 6.79 µM
OVCAR-3 ovarian
  TGI: 30.6 µM
HT29 colon
  TGI: 5.04 µM
NCI-H522 lung
  TGI: 9.78 µM
UACC-62 melanoma
  TGI: 21.6 µM
SF-268 CNS
  TGI: 25.7 µM

## CC#C[C@@]1(O)CCCC[C@@H]1O
IGROV1 ovarian
  TGI: > 100 µM
HL-60(TB) leukemia
  TGI: > 100 µM
RPMI-8226 leukemia
  TGI: > 100 µM
OVCAR-3 ovarian
  TGI: > 100 µM
HT29 colon
  TGI: > 100 µM
NCI-H522 lung
  TGI: > 100 µM
UACC-62 melanoma
  TGI: > 100 µM
SF-268 CNS
  TGI: > 100 µM

## N#Cc1cccc(NC(=O)c2ccc(C(=O)O)c(C(=O)c3ccc(C(=O)O)c(C(=O)Nc4cccc(C#N)c4)c3)c2)c1
CAKI-1 renal
  TGI: > 100 µM
IGROV1 ovarian
  TGI: > 100 µM
HL-60(TB) leukemia
  TGI: > 100 µM
RPMI-8226 leukemia
  TGI: > 100 µM
OVCAR-3 ovarian
  TGI: > 100 µM
HT29 colon
  TGI: > 100 µM
NCI-H522 lung
  TGI: > 100 µM
UACC-62 melanoma
  TGI: > 100 µM
SF-268 CNS
  TGI: > 100 µM
